Consider four compounds from patent publication US9040663B2, “Melanocortin receptor-specific peptides” (AstraZeneca AB, priority 2009, dated 2015).

Values joined by “and” are separate entries in the source; they are usually repeats but may differ in a detail not shown here. Equal entries are not always repeated. Where two headings read alike, the source gives them in different places.

In series [1] the target is T1, hMC4-R (Homo sapiens (Human), UniProt P32245). Nature of the series: Competitive inhibition binding assay using [I125]-NDP-α-MSH, hMC4-R. Conditions: membranes of HEK-293 cells expressing recombinant hMC4-R, read-out: MC4-R Ki.
T1 sequence (P32245 whole entry): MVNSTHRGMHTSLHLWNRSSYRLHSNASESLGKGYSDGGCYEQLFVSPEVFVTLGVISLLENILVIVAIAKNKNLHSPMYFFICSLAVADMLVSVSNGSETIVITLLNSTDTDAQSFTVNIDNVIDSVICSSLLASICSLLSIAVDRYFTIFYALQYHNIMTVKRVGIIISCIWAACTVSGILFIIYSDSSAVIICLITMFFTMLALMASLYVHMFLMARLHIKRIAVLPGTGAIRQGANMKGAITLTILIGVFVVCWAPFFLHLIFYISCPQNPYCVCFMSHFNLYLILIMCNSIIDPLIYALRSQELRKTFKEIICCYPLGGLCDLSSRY
For another series, the target named is MC1-R. Kind of series: Competitive inhibition binding assay using [I125]-NDP-α-MSH, MC1-R. Conditions: membranes of B-16 mouse melanoma cells (endogenous MC1-R), in some instances HEK-293 hMC1-R. The essentials:
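Radioligand displacement on membranes from B-16 mouse melanoma cells (endogenous MC1-R) or HEK-293 expressing recombinant hMC1-R, with 0.1 nM [I125]-NDP-α-MSH and increasing peptide concentrations in HEPES pH 7.5 buffer, 60 min at 37° C.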

The target of series [2] is T1, hMC4-R. Kind of series: High and low density hMC4-R functional assay (cAMP, HEK293-T-REx-MC4-R cells). Format: cell-based. Conditions: for Emax: NDP-α-MSH = 100%.
Series [3] in a line: Food intake and body weight change. Format: in vivo, Sprague-Dawley rats. Conditions: male rats, 1.0 mg/kg s.c., mean ± SEM; for BW change 0-24 h: body weight; for FI 0-4 h / FI 0-24 h: food intake. As for the experimental part:
7.4 Food Intake and Body Weight Change.
Change in food intake and body weight was evaluated for selected peptides administered by subcutaneous injection route. Male Sprague-Dawley rats were obtained from Hilltop Lab Animals, Inc. (Scottdale, Pa.). Animals were individually housed in conventional polystyrene hanging cages and maintained on a controlled 12 hour on/off light cycle. Water and pelleted food (ProLab RMH 2500, W.F. Fisher & Son Inc.) was provided ad libitum. The rats were dosed subcutaneously with vehicle (3.2% mannitol/50 mM Tris buffer) or selected peptides (1.0 mg/kg). The changes in food intake for the 4 and 24 hour periods after dosing and the changes in body weight for the 24 hour period after dosing were determined. The changes in body weight and food intake for the 48 hour and 72 hour periods after dosing was also measured to determine reversal of changes in body weight and food intake effects back to baseline levels (not shown).

Series [4] can be described thus: Induction of penile erection. Conditions: male rats; for Total number of PE/rat 0-1 h: mean ± SEM; for % Responders: rats showing at least one erection.
Protocol: 7.5 Induction of Penile Erection.
(§1) The ability of peptides of the present invention to induce penile erection (PE) in male rats was evaluated with selected peptides. Male Sprague-Dawley rats weighing 250-300 g were kept on a 12 hour on/off light cycle with food and water ad libitum. All behavioral studies were performed between 9 a.m. and 4 p.m.
(§2) Corresponding vehicle controls (3.2% mannitol/50 mM Tris buffer) were run in parallel.
For series [5] the following is noted: in vivo, sc.
Protocol: 7.5 Induction of Penile Erection.
as §1, §2
The mark [6] stands for this setting: 0.1 ng/mL Doxycycline (low density hMC4-R system).
[7] abbreviates: 0.1 ng/mL Doxycycline (low density hMC4-R system), read-out: Intrinsic Activity (%).
The mark [8] stands for this setting: 10 ng/mL Doxycycline (high density hMC4-R system), read-out: Intrinsic Activity (%).

Consider `CC(=O)N[C@@H](CCCNC(=N)N)C(=O)N[C@H]1CCC(=O)NCCC[C@@H](C(N)=O)NC(=O)[C@H](Cc2c[nH]c3ccccc23)NC(=O)[C@H](CCCNC(=N)N)NC(=O)[C@@H](Cc2ccc(C#N)cc2)NC(=O)[C@H](CC(N)=O)NC1=O` [Example 43, Ac-Arg-cyclo(Glu-Asn-D-Phe(4-CN)-Arg-Trp-Orn)-NH2], for which the Ki – broadly, the equilibrium dissociation constant of an inhibitor or competing ligand from its target – on hMC4-R [1] turned out to be 5 nM; at MC1-R it was 870 nM. For the same compound, the EC50 (usually the midpoint of the concentration-response curve) at hMC4-R [2] (setting [6]) amounted to 1 nM. Further, the Emax at hMC4-R [2] (setting [7]) was found to be 43%; on hMC4-R [2] (setting [8]), 100%. Besides, the “BW change 0-24 h” value in series [3] was determined as 0.45 ± 0.35 g. Besides, the “FI 0-4 h” value in series [3] was 6.85 ± 0.55 g. The “FI 0-24 h” value in series [3] came to 24.44 ± 0.85 g. Also, the results for the “Total number of PE/rat 0-1 h” value in series [4] (1.0 mg/kg s.c.) and in series [4] (3.0 mg/kg s.c.) were 1.7 ± 0.36 and 6.0 ± 0.76, respectively. Also, the “% Responders” value in series [4] (1.0 mg/kg s.c.) stood at 29%; in series [4] (3.0 mg/kg s.c.), 100%.

With `CC(=O)N[C@@H](CCCNC(=N)N)C(=O)N[C@H]1CCC(=O)NCCC[C@@H](C(N)=O)NC(=O)[C@H](Cc2c[nH]c3ccccc23)NC(=O)[C@H](CCCNC(=N)N)NC(=O)[C@@H](Cc2ccc(C#N)cc2)NC(=O)[C@H](CCC(N)=O)NC1=O` [Example 46, Ac-Arg-cyclo(Glu-Gln-D-Phe(4-CN)-Arg-Trp-Orn)-NH2], on hMC4-R [1], the Ki came out at 4 nM. Besides, the values for the Emax on hMC4-R [2] (setting [7]) and at hMC4-R [2] (setting [8]) were 40% and 97%, respectively. Also, in series [3], the “BW change 0-24 h” value was -0.29 ± 0.55 g. Moreover, the “FI 0-4 h” value in series [3] is 3.71 ± 0.68 g. Also, the “FI 0-24 h” value in series [3] amounted to 20.56 ± 1.14 g. The “Total number of PE/rat 0-1 h” value in series [5] (1 mg/kg) came out at 4.9 ± 1.1; in series [5] (3 mg/kg), 4.4 ± 1.1. Also, the results for the “% Responders” value in series [4] (1.0 mg/kg s.c.) and in series [4] (3.0 mg/kg s.c.) were 100% and 86%, respectively.

With `CC(=O)N[C@@H](CCCNC(=N)N)C(=O)N[C@H]1CCC(=O)NCCC[C@@H](C(N)=O)NC(=O)[C@H](Cc2c[nH]c3ccccc23)NC(=O)[C@H](CCCNC(=N)N)NC(=O)[C@@H](Cc2ccc(F)cc2)NC(=O)[C@@H]2CCCN2C1=O` [Example 67, Ac-Arg-cyclo(Glu-Pro-D-Phe(4-F)-Arg-Trp-Orn)-NH2], the results for the Ki on hMC4-R [1] and on MC1-R were 5 nM and 130 nM, respectively. In addition, the 50% effective concentration (EC50) on hMC4-R [2] (setting [6]) was 1 nM; at hMC4-R [2] (10 ng/mL Doxycycline (high density hMC4-R system)), 0.14 nM. Also, the Emax at hMC4-R [2] (setting [7]) stood at 38%; at hMC4-R [2] (setting [8]), 99%. Also, the “BW change 0-24 h” value in series [3] is -0.05 ± 0.39 g. Moreover, the “FI 0-4 h” value in series [3] worked out at 4.20 ± 0.66 g. The “FI 0-24 h” value in series [3] came to 21.51 ± 1.27 g. Further, the figures for the “Total number of PE/rat 0-1 h” value in series [4] (1.0 mg/kg s.c.) and in series [4] (3.0 mg/kg s.c.) were 2.3 ± 0.42 and 3.3 ± 1.0, respectively. The “% Responders” value in series [4] (1.0 mg/kg s.c.) is recorded as 86%; in series [4] (3.0 mg/kg s.c.), 100%.

For `CC(=O)N[C@@H](CCCNC(=N)N)C(=O)N[C@H]1CCC(=O)NCCC[C@@H](C(=O)O)NC(=O)[C@H](Cc2c[nH]c3ccccc23)NC(=O)[C@H](CCCNC(=N)N)NC(=O)[C@@H](Cc2ccccc2)NC(=O)[C@H](CCN)NC1=O` [Ref Ex 2, Ac-Arg-cyclo(Glu-Dab-D-Phe-Arg-Trp-Orn)-OH, reference compound], on hMC4-R [2] (Table 1, mean values, 0.1 ng/mL Doxycycline (low density hMC4-R system), read-out: Intrinsic activity (%)), the Emax is 92%. In addition, in series [3], the “FI 0-4 h” value was 3.17 ± 0.42 g and 4.41 ± 0.48 g and 2.80 ± 0.27 g; the “FI 0-24 h” value is 19.98 ± 0.60 g and 20.84 ± 1.01 g and 21.81 ± 1.04 g. In addition, in series [4] (3.0 mg/kg s.c.), the “Total number of PE/rat 0-1 h” value worked out at 6.0 ± 0.44 and the “% Responders” value was 100%.
